Values quoted from earlier work as cited in US20130084272A1, “COMPOSITIONS, KITS AND METHODS FOR NUTRITIONAL SUPPLEMENTATION WITH TWELVE CARBON CHAIN FATTY ACIDS AND TWELVE CARBON CHAIN ACYLGLYCEROLS” (priority 2011, published 2013).

System: exotoxins from Gram-positive bacteria
Conditions: Peterson et al. 2006; cited from earlier work

## CCCCCCCCCCCC(=O)OCC(O)CO (stereo not shown) [monolaurin, glycerol monolaurate]
  Effect on exotoxins from Gram-positive bacteria: inhibit the effects of exotoxins
